Measurements reported in patent US20260060250A1, “HERBICIDAL PYRIDONE DERIVATIVES” (SYNGENTA CROP PROTECTION AG, priority 2022, published 2026).

Key:
Format in all cases: in vivo
Conditions in all cases: 1000 g/ha, evaluated after 13 days
Zea mays (ZEAMX) [1] = assay: Pre-emergence Test (Table B1); design: key: 5=81-100%; 4=61-80%; 3=41-60%; 2=21-40%; 1=0-20%; 0=inactive
[2] = tested on: Amaranthus retroflexus (AMARE); assay: Pre-emergence Test (Table B1)
Setaria faberi (SETFA) [3] = assay: Post-emergence Test (Table B2)
Protocol: (§1) Seeds of a variety of test species are sown in standard soil in pots (Amaranthus palmeri (AMAPA), Setaria faberi (SETFA), Echinochloa crus-galli (ECHCG), (Amaranthus retroflexus (AMARE), Zea mays (ZEAMX), Ipomoea hederacea (IPOHE)). After 8 days cultivation under controlled conditions in a glasshouse (at 24° C./16° C., day/night; 14 hours light; 65% humidity), the plants are sprayed with an aqueous spray solution derived from the formulation of the technical active ingredient in acetone/water (50:50) solution containing 0.5% Tween 20 (polyoxyethelyene sorbitan monolaurate, CAS RN 9005-64-5). Compounds are applied at 1000 g/ha unless otherwise stated. The test plants are then grown in a glasshouse under controlled conditions in a glasshouse (at 24° C./16° C., day/night; 14 hours light; 65% humidity) and watered twice daily. After 13 days the test is evaluated for the percentage damage caused to the plant.

[4] = tested on: Amaranthus palmeri (AMAPA); assay: Post-emergence Test (Table B2)
Protocol: as §1

[5] = tested on: Amaranthus retroflexus (AMARE); assay: Post-emergence Test (Table B2)
Protocol: as §1

[6] = tested on: Ipomoea hederacea (IPOHE); assay: Pre-emergence Test (Table B1); design: key: 5=81-100%; 4=61-80%; 3=41-60%; 2=21-40%; 1=0-20%; 0=inactive
Zea mays (ZEAMX) [7] = assay: Post-emergence Test (Table B2); design: key: 5=81-100%; 4=61-80%; 3=41-60%; 2=21-40%; 1=0-20%; 0=inactive
Protocol: as §1

[8] = tested on: Ipomoea hederacea (IPOHE); assay: Post-emergence Test (Table B2); design: key: 5=81-100%; 4=61-80%; 3=41-60%; 2=21-40%; 1=0-20%; 0=inactive
Protocol: as §1

[9] = tested on: Echinochloa crus-galli (ECHCG); assay: Post-emergence Test (Table B2); design: key: 5=81-100%; 4=61-80%; 3=41-60%; 2=21-40%; 1=0-20%; 0=inactive
Protocol: as §1

[10] = tested on: Echinochloa crus-galli (ECHCG); assay: Pre-emergence Test (Table B1); design: key: 5=81-100%; 4=61-80%; 3=41-60%; 2=21-40%; 1=0-20%; 0=inactive
[11] = tested on: Amaranthus palmeri (AMAPA); assay: Pre-emergence Test (Table B1)
Setaria faberi (SETFA) [12] = assay: Pre-emergence Test (Table B1); design: key: 5=81-100%; 4=61-80%; 3=41-60%; 2=21-40%; 1=0-20%; 0=inactive

SMILES	percentage damage caused to the plant, ZEAMX (Zea mays (ZEAMX) [1])	percentage damage caused to the plant, AMARE [2]	percentage damage caused to the plant, SETFA (Setaria faberi (SETFA) [3])	percentage damage caused to the plant, AMAPA [4]	percentage damage caused to the plant, AMARE [5]	percentage damage caused to the plant, IPOHE [6]	percentage damage caused to the plant, ZEAMX (Zea mays (ZEAMX) [7])	percentage damage caused to the plant, IPOHE [8]	percentage damage caused to the plant, ECHCG [9]	percentage damage caused to the plant, ECHCG [10]	percentage damage caused to the plant, AMAPA [11]	percentage damage caused to the plant, SETFA (Setaria faberi (SETFA) [12])
CCn1c(C)c(-c2cc(C(=O)OC(C)CF)ccc2F)c(=O)c(C(=O)O)c1-c1ccc(Cl)c(Cl)c1 (stereo not drawn) [Compound 9, 2-(3,4-dichlorophenyl)-1-ethyl-5-[2-fluoro-5-(2-fluoro-1-methyl-ethoxy)carbonyl-phenyl]-6-methyl-4-oxo-pyridine-3-carboxylic acid]	1 (1=0-20%)	5 (5=81-100%)	3 (3=41-60%)	4 (4=61-80%)	5 (5=81-100%)	0	2 (2=21-40%)	1 (1=0-20%)	2 (2=21-40%)	1 (1=0-20%)	5 (5=81-100%)	2 (2=21-40%)
CCn1c(C)c(-c2cc(C(=O)OC(C)C(C)=O)ccc2F)c(=O)c(C(=O)O)c1-c1ccc(Cl)c(Cl)c1 (stereo not drawn) [Compound 10, 2-(3,4-dichlorophenyl)-1-ethyl-5-[2-fluoro-5-(1-methyl-2-oxo-propoxy)carbonyl-phenyl]-6-methyl-4-oxo-pyridine-3-carboxylic acid]	0	5 (5=81-100%)	4 (4=61-80%)	5 (5=81-100%)	5 (5=81-100%)	0	3 (3=41-60%)	1 (1=0-20%)	2 (2=21-40%)	0	5 (5=81-100%)	0
CCC#CC(C)OC(=O)c1ccc(F)c(-c2c(C)n(CC)c(-c3ccc(Cl)c(Cl)c3)c(C(=O)O)c2=O)c1 (stereo not drawn) [Compound 11, 2-(3,4-dichlorophenyl)-1-ethyl-5-[2-fluoro-5-(1-methylpent-2-ynoxycarbonyl)phenyl]-6-methyl-4-oxo-pyridine-3-carboxylic acid]	0	5 (5=81-100%)	4 (4=61-80%)	5 (5=81-100%)	5 (5=81-100%)	0	2 (2=21-40%)	3 (3=41-60%)	4 (4=61-80%)	0	5 (5=81-100%)	0
C#CC(C)OC(=O)c1ccc(F)c(-c2c(C)n(CC)c(-c3ccc(Cl)c(Cl)c3)c(C(=O)O)c2=O)c1 (stereo not drawn) [Compound 12, 2-(3,4-dichlorophenyl)-1-ethyl-5-[2-fluoro-5-(1-methylprop-2-ynoxycarbonyl)phenyl]-6-methyl-4-oxo-pyridine-3-carboxylic acid]	1 (1=0-20%)	5 (5=81-100%)	5 (5=81-100%)	5 (5=81-100%)	5 (5=81-100%)	1 (1=0-20%)	3 (3=41-60%)	2 (2=21-40%)	4 (4=61-80%)	3 (3=41-60%)	4 (4=61-80%)	4 (4=61-80%)
C=CCC(C)OC(=O)c1ccc(F)c(-c2c(C)n(CC)c(-c3ccc(Cl)c(Cl)c3)c(C(=O)O)c2=O)c1 (stereo not drawn) [Compound 13, 2-(3,4-dichlorophenyl)-1-ethyl-5-[2-fluoro-5-(1-methylbut-3-enoxycarbonyl)phenyl]-6-methyl-4-oxo-pyridine-3-carboxylic acid]	0	4 (4=61-80%)	2 (2=21-40%)	4 (4=61-80%)	4 (4=61-80%)	0	2 (2=21-40%)	2 (2=21-40%)	1 (1=0-20%)	1 (1=0-20%)	4 (4=61-80%)	2 (2=21-40%)
CCOCC(C)OC(=O)c1ccc(F)c(-c2c(C)n(CC)c(-c3ccc(Cl)c(Cl)c3)c(C(=O)O)c2=O)c1 (stereo not drawn) [Compound 14, 2-(3,4-dichlorophenyl)-5-[5-(2-ethoxy-1-methyl-ethoxy)carbonyl-2-fluoro-phenyl]-1-ethyl-6-methyl-4-oxo-pyridine-3-carboxylic acid]	0	5 (5=81-100%)	3 (3=41-60%)	5 (5=81-100%)	5 (5=81-100%)	0	1 (1=0-20%)	0	3 (3=41-60%)	0	5 (5=81-100%)	3 (3=41-60%)
CC#CC(C)OC(=O)c1ccc(F)c(-c2c(C)n(CC)c(-c3ccc(Cl)c(Cl)c3)c(C(=O)O)c2=O)c1 (stereo not drawn) [Compound 15, 2-(3,4-dichlorophenyl)-1-ethyl-5-[2-fluoro-5-(1-methylbut-2-ynoxycarbonyl)phenyl]-6-methyl-4-oxo-pyridine-3-carboxylic acid]	0	5 (5=81-100%)	5 (5=81-100%)	5 (5=81-100%)	5 (5=81-100%)	0	4 (4=61-80%)	2 (2=21-40%)	5 (5=81-100%)	0	5 (5=81-100%)	0
C#CC(C)OC(=O)c1cc(-c2c(C)n(CC)c(-c3ccc(Cl)c(Cl)c3)c(C(=O)O)c2=O)c(F)cc1Cl (stereo not drawn) [Compound 20, 5-[4-chloro-2-fluoro-5-(1-methylprop-2-ynoxycarbonyl)phenyl]-2-(3,4-dichlorophenyl)-1-ethyl-6-methyl-4-oxo-pyridine-3-carboxylic acid]	0	5 (5=81-100%)	5 (5=81-100%)	5 (5=81-100%)	5 (5=81-100%)	0	4 (4=61-80%)	4 (4=61-80%)	5 (5=81-100%)	3 (3=41-60%)	5 (5=81-100%)	3 (3=41-60%)
